The text below walks through data of ChEMBL document CHEMBL3886628, “Substituted 3-(biphenyl-3-yl)-4-hydroxy-8-methoxy-1-azaspiro[4.5]dec-3-en-2-one” (2016).

Test [1] concerns the target Acetyl-CoA carboxylase 1 (Homo sapiens, UniProt Q13085). Kind of test: Typical concentrations were in the range of 1.75 μl.
The target in test [2] is Acetyl-CoA carboxylase 2 (Homo sapiens, UniProt O00763).

Structures are written as SMILES. Where “and” joins values, the source holds several entries; their conditions need not be identical. Equal values may be shown once.

Chain of Acetyl-CoA carboxylase 2 (O00763 whole entry): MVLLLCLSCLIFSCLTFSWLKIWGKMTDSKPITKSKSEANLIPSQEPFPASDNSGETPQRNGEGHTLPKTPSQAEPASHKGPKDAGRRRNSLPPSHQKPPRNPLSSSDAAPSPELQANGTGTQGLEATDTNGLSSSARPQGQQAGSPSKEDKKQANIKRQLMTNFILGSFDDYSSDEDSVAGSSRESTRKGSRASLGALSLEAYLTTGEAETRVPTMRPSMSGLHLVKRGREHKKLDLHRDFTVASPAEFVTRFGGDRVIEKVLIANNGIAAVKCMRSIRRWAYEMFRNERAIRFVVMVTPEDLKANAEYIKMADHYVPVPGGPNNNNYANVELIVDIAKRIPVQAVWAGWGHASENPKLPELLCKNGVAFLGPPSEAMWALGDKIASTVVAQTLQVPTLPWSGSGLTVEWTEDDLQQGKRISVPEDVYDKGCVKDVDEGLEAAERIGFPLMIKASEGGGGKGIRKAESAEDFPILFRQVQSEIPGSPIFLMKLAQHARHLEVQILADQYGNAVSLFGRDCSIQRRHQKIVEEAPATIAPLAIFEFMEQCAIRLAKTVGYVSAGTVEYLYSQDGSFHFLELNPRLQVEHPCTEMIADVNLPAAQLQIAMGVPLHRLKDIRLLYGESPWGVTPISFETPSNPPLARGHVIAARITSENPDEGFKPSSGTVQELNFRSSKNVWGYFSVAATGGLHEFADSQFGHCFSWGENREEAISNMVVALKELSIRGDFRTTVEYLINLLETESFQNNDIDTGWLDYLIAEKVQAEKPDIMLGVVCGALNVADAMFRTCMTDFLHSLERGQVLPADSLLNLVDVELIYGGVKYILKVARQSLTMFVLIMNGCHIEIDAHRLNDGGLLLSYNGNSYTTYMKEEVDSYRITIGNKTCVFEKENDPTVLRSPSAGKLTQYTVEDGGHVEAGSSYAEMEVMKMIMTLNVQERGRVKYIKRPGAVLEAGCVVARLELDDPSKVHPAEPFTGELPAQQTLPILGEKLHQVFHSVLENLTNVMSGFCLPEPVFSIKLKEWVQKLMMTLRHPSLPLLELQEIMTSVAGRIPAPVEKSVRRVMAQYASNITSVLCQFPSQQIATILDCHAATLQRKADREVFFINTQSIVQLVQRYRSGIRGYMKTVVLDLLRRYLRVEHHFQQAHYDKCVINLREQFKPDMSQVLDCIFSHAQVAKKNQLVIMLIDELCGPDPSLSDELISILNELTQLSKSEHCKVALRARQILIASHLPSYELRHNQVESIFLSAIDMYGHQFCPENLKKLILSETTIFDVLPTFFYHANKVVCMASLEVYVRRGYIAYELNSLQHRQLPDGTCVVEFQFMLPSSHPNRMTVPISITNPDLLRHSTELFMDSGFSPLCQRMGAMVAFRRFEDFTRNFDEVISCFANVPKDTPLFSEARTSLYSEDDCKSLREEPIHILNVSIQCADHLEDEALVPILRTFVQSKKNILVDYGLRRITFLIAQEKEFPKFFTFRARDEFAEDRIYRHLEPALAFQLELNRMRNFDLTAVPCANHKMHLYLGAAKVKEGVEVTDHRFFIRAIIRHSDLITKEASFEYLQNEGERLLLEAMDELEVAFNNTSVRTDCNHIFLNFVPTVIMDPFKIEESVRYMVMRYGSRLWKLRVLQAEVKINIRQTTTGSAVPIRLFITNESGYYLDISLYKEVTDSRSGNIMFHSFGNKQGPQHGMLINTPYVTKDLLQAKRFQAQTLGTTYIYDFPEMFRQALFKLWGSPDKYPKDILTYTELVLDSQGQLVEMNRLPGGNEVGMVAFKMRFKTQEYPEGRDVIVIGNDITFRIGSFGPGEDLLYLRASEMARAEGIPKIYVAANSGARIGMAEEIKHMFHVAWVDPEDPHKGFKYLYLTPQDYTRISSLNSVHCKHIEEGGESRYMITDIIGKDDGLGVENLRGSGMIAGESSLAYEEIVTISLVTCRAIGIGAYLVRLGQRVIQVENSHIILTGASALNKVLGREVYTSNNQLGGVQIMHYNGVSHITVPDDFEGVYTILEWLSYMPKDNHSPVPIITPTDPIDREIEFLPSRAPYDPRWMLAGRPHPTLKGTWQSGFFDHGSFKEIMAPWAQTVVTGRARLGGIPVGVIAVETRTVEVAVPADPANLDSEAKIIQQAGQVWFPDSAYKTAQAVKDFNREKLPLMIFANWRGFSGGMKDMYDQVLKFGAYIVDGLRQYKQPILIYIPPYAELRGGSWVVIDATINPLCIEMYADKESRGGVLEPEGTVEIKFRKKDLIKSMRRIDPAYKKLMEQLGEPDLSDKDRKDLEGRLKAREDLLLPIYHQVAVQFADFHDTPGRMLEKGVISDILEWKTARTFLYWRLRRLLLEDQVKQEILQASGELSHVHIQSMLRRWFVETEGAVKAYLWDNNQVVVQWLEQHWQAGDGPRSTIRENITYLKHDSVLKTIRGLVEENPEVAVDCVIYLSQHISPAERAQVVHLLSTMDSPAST

In general, IC50 refers to the concentration at which inhibition is half-maximal. As for `CO[C@]1(C(F)(F)F)CC[C@]2(CC1)NC(=O)C(c1cc(-c3ccc(Cl)c(F)c3)ccc1C)=C2O`, the IC50 in test [1] is 92 nM and 119 nM; in test [2], 2760 nM and 1690 nM and 2010 nM.
As to `CO[C@]1(C(F)(F)F)CC[C@]2(CC1)NC(=O)C(c1cc(-c3ccc(Cl)cc3)ccc1C)=C2O`, in test [1], the half-maximal inhibitory concentration (IC50) was 231 nM and 244 nM and 44 nM and 67 nM and 78 nM and 162 nM and 186 nM and 99 nM.
Same read-out and setting: the value for `COC[C@]1(OC)CC[C@@]2(CC1)NC(=O)C(c1cc(-c3ccc(Cl)c(F)c3)ccc1C)=C2O` was 104 nM and 133 nM and 84 nM.
